Assay results published in patent US20260001928A1 (CORTERIA PHARMACEUTICALS, priority 2022, published 2026).
*1 amine or outer side, *2 acyl side, *3 side chain or, on linkers, in order; H or OH if unused. Where a SMILES comes first, the peptide text is derived from it. Side-chain parts run from the residue outwards. [ ]: non-standard residue; d: D form. The star is where a group is joined. C18 diacid = O=C(O)CCCCCCCCCCCCCCCCC(=O)*; γGlu = O=C(O)[C@H](CCC(=O)[*:2])N[*:1]; C12 diacid = O=C(O)CCCCCCCCCCC(=O)*; NMeI = CC[C@H](C)[C@H](NC)C(=O)O; Api = NC1(C(=O)O)CCNCC1; Pentanoyl = CCCCC(=O)*; Aib = CC(C)(N)C(=O)O

Assays:
human CRF2a receptor = target: T1, human CRF2a receptor (Homo sapiens, UniProt Q13324); test: Activity at human CRF2a receptor, cAMP functional assay in TeloHEAC cells; type: cell-based; conditions: TeloHEAC cells stably expressing human CRF2a receptor, relative to urocortin 2 (100 nM = 100%)
T1 construct: expressed in transfected cells; host or cells: TeloHEAC cells
T1 sequence (Q13324 1-411): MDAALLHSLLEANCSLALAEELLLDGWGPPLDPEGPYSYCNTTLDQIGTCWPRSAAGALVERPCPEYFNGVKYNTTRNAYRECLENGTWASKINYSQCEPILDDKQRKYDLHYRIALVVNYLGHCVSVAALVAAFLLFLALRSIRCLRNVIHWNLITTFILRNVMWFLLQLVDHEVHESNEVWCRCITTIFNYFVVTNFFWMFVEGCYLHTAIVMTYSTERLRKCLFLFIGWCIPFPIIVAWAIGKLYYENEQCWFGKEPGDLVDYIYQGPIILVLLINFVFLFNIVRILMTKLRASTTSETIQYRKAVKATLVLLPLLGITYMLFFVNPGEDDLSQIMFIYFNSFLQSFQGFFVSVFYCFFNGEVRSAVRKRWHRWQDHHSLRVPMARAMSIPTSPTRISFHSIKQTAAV
Procedure, shortened: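 TeloHEAC cells stably expressing human CRF2a (10000 cells/well, suspended in HBSS/20 mM HEPES with 2 mM IBMX) were exposed to compounds for 30 min at 37 °C. cAMP was read as the 665/620 nm fluorescence ratio after 1 h at room temperature. EC50 was derived relative to 100 nM urocortin 2, set as 100%.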

CFR1R receptor = target: T2, CFR1R receptor (Homo sapiens, UniProt P34998); test: Activity at anti-target CFR1R receptor, cAMP assay in CRF1R-overexpression CHO-K1 cells; type: cell-based; conditions: 100% = Sauvagine at 100 nM; for EC50: cAMP
T2 construct: host or cells: CHO-K1 (clone 2)
T2 sequence (P34998 24-415): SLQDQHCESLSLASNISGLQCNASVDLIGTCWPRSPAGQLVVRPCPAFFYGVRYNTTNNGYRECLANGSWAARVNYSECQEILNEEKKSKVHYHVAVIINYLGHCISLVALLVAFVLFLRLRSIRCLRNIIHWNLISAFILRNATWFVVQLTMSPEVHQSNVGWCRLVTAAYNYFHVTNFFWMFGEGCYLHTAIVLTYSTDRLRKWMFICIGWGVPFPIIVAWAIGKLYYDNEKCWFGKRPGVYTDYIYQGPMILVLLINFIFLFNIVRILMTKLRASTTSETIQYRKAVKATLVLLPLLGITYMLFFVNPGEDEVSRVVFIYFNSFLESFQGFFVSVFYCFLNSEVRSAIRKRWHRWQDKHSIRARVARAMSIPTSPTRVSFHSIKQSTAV
Procedure, shortened: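 cAMP readout in CRF1R-overexpressing CHO-K1 cells (clone 2), run as for the TeloHAEC assay at 4000 cells/well final. Cells came from cryopreserved banks. Sauvagine at 100 nM defined 100% activation.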

Row | EC50 (human CRF2a receptor) [nM] | Emax (% I) (CFR1R receptor) | EC50 (CFR1R receptor) [nM] | Compound
1 | 2.47 | 11 | > 250 | CC[C@H](C)[C@H](NC(C)=O)C(=O)N[C@H](C(=O)N[C@@H](CC(C)C)C(=O)N[C@@H](CO)C(=O)N[C@@H](CC(C)C)C(=O)N[C@@H](CC(=O)O)C(=O)N[C@@H](C(=O)N1CCC[C@H]1C(=O)N[C@H](C(=O)N[C@@H](CCCCN)C(=O)N[C@@H](CC(C)C)C(=O)N[C@@H](CCCCNC(=O)CC[C@H](NC(=O)CCCCCCCCCCC(=O)O)C(=O)O)C(=O)N[C@@H](CCCCN)C(=O)N[C@H](C(=O)N[C@@H](CC(C)C)C(=O)N[C@@H](CC(C)C)C(=O)N[C@@H](CCC(=O)O)C(=O)N[C@@H](CCC(N)=O)C(=O)N[C@@H](CCC(=O)O)C(=O)N[C@@H](CCCCN)C(=O)N[C@@H](CCC(N)=O)C(=O)N[C@@H](CCCCN)C(=O)N[C@@H](CCCCN)C(=O)N[C@@H](CCC(N)=O)C(=O)N[C@@H](CCCNC(=N)N)C(=O)N[C@@H](CCC(=O)O)C(=O)N[C@@H](CCC(N)=O)C(=O)N[C@@H](C)C(=O)N[C@@H](CCC(=O)O)C(=O)N[C@H](C(=O)N[C@@H](CC(N)=O)C(=O)NC1(C(=O)N[C@@H](CCC(N)=O)C(=O)N[C@H](C(=O)N[C@@H](CC(C)C)C(=O)N[C@@H](C)C(=O)N[C@@H](CCC(N)=O)C(=O)N[C@H](C(N)=O)C(C)C)[C@@H](C)CC)CCNCC1)[C@@H](C)O)[C@@H](C)CC)[C@@H](C)CC)C(C)C)C(C)C [compound 183] (Ac-IVLSLD[dV]PIKLK([γGlu-C12 diacid])KILLEQEKQKKQREQAETN[Api]QILAQV-NH2)
2 | 4.25 | 3 | > 250 | CC[C@H](C)[C@H](NC(C)=O)C(=O)N[C@H](C(=O)N[C@@H](CC(C)C)C(=O)N[C@@H](CO)C(=O)N[C@@H](CC(C)C)C(=O)N[C@@H](CC(=O)O)C(=O)N[C@@H](C(=O)N1CCC[C@H]1C(=O)N[C@H](C(=O)N[C@@H](CCCCN)C(=O)N[C@@H](CC(C)C)C(=O)N[C@@H](CCCCNC(=O)CC[C@H](NC(=O)CCCCCCCCCCC(=O)O)C(=O)O)C(=O)N[C@@H](CCCCN)C(=O)N[C@H](C(=O)N[C@@H](CC(C)C)C(=O)N[C@@H](CC(C)C)C(=O)N[C@@H](CCC(=O)O)C(=O)N[C@@H](CCC(N)=O)C(=O)N[C@@H](CCC(=O)O)C(=O)N[C@@H](CCCCN)C(=O)N[C@@H](CCC(N)=O)C(=O)N[C@@H](CCCCN)C(=O)NC(C)(C)C(=O)N[C@@H](CCC(N)=O)C(=O)N[C@@H](CCCNC(=N)N)C(=O)N[C@@H](CCC(=O)O)C(=O)N[C@@H](CCC(N)=O)C(=O)N[C@@H](C)C(=O)N[C@@H](CCC(=O)O)C(=O)N[C@H](C(=O)N[C@@H](CC(N)=O)C(=O)NC1(C(=O)N[C@@H](CCC(N)=O)C(=O)N[C@H](C(=O)N[C@@H](CC(C)C)C(=O)N[C@@H](C)C(=O)N[C@@H](CCC(N)=O)C(=O)N[C@H](C(N)=O)C(C)C)[C@@H](C)CC)CCNCC1)[C@@H](C)O)[C@@H](C)CC)[C@@H](C)CC)C(C)C)C(C)C [compound 184] (Ac-IVLSLD[dV]PIKLK([γGlu-C12 diacid])KILLEQEKQK[Aib]QREQAETN[Api]QILAQV-NH2)
3 | 3.54 | 2 | > 250 | CCCCC(=O)N[C@H](C(=O)N[C@@H](CC(C)C)C(=O)N[C@@H](CO)C(=O)N[C@@H](CC(C)C)C(=O)N[C@@H](CC(=O)O)C(=O)N[C@@H](C(=O)N1CCC[C@H]1C(=O)N[C@H](C(=O)N[C@@H](CCCCN)C(=O)N[C@@H](CC(C)C)C(=O)N[C@@H](CCCCNC(=O)CC[C@H](NC(=O)CCCCCCCCCCC(=O)O)C(=O)O)C(=O)N[C@@H](CCCCN)C(=O)N[C@H](C(=O)N[C@@H](CC(C)C)C(=O)N[C@@H](CC(C)C)C(=O)N[C@@H](CCC(=O)O)C(=O)N[C@@H](CCC(N)=O)C(=O)N[C@@H](CCC(=O)O)C(=O)N[C@@H](CCCCN)C(=O)N[C@@H](CCC(N)=O)C(=O)N[C@@H](CCCCN)C(=O)N[C@@H](CCCCN)C(=O)N[C@@H](CCC(N)=O)C(=O)N[C@@H](CCCNC(=N)N)C(=O)N[C@@H](CCC(=O)O)C(=O)N[C@@H](CCC(N)=O)C(=O)N[C@@H](C)C(=O)N[C@@H](CCC(=O)O)C(=O)N[C@H](C(=O)N[C@@H](CC(N)=O)C(=O)NC(C)(C)C(=O)N[C@@H](CCC(N)=O)C(=O)N[C@H](C(=O)N[C@@H](CC(C)C)C(=O)N[C@@H](C)C(=O)N[C@@H](CCC(N)=O)C(=O)N[C@H](C(N)=O)C(C)C)[C@@H](C)CC)[C@@H](C)O)[C@@H](C)CC)[C@@H](C)CC)C(C)C)C(C)C [compound 185] (Pentanoyl-VLSLD[dV]PIKLK([γGlu-C12 diacid])KILLEQEKQKKQREQAETN[Aib]QILAQV-NH2)
4 | 0.79 | 2 | > 250 | CC[C@H](C)[C@H](NC)C(=O)N[C@H](C(=O)N[C@@H](CC(C)C)C(=O)N[C@@H](CO)C(=O)N[C@@H](CC(C)C)C(=O)N[C@@H](CC(=O)O)C(=O)N[C@@H](C(=O)N1CCC[C@H]1C(=O)N[C@H](C(=O)N[C@@H](CCCCN)C(=O)N[C@@H](CC(C)C)C(=O)N[C@@H](CCCCNC(=O)CC[C@H](NC(=O)CCCCCCCCCCC(=O)O)C(=O)O)C(=O)N[C@@H](CCCCN)C(=O)N[C@H](C(=O)N[C@@H](CC(C)C)C(=O)N[C@@H](CC(C)C)C(=O)N[C@@H](CCC(=O)O)C(=O)N[C@@H](CCC(N)=O)C(=O)N[C@@H](CCC(=O)O)C(=O)N[C@@H](CCCCN)C(=O)N[C@@H](CCC(N)=O)C(=O)N[C@@H](CCCCN)C(=O)N[C@@H](CCCCN)C(=O)N[C@@H](CCC(N)=O)C(=O)N[C@@H](CCCNC(=N)N)C(=O)N[C@@H](CCC(=O)O)C(=O)N[C@@H](CCC(N)=O)C(=O)N[C@@H](C)C(=O)N[C@@H](CCC(=O)O)C(=O)N[C@H](C(=O)N[C@@H](CC(N)=O)C(=O)NC(C)(C)C(=O)N[C@@H](CCC(N)=O)C(=O)N[C@H](C(=O)N[C@@H](CC(C)C)C(=O)N[C@@H](C)C(=O)N[C@@H](CCC(N)=O)C(=O)N[C@H](C(N)=O)C(C)C)[C@@H](C)CC)[C@@H](C)O)[C@@H](C)CC)[C@@H](C)CC)C(C)C)C(C)C [compound 186] (H-[NMeI]VLSLD[dV]PIKLK([γGlu-C12 diacid])KILLEQEKQKKQREQAETN[Aib]QILAQV-NH2)
5 | 0.18 | 54 |  | CC[C@H](C)[C@H](NC(C)=O)C(=O)N[C@H](C(=O)N[C@@H](CC(C)C)C(=O)N[C@@H](CO)C(=O)N[C@@H](CC(C)C)C(=O)N[C@@H](CC(=O)O)C(=O)N[C@@H](C(=O)N1CCC[C@H]1C(=O)N[C@H](C(=O)NCC(=O)N[C@@H](CC(C)C)C(=O)N[C@@H](CCCCNC(=O)CC[C@H](NC(=O)CCCCCCCCCCCCCCCCC(=O)O)C(=O)O)C(=O)N[C@@H](CCCCN)C(=O)N[C@H](C(=O)N[C@@H](CC(C)C)C(=O)N[C@@H](CC(C)C)C(=O)N[C@@H](CCC(=O)O)C(=O)N[C@@H](CCC(N)=O)C(=O)N[C@@H](CCC(=O)O)C(=O)N[C@@H](CCCCN)C(=O)N[C@@H](CCC(N)=O)C(=O)N[C@@H](CCCCN)C(=O)N[C@@H](CCCCN)C(=O)N[C@@H](CCC(N)=O)C(=O)N[C@@H](CCCNC(=N)N)C(=O)N[C@@H](CCC(=O)O)C(=O)N[C@@H](CCC(N)=O)C(=O)N[C@@H](C)C(=O)N[C@@H](CCC(=O)O)C(=O)N[C@H](C(=O)N[C@@H](CC(N)=O)C(=O)NC(C)(C)C(=O)N[C@@H](CCC(N)=O)C(=O)N[C@H](C(=O)N[C@@H](CC(C)C)C(=O)N[C@@H](C)C(=O)N[C@@H](CCC(N)=O)C(=O)N[C@H](C(N)=O)C(C)C)[C@@H](C)CC)[C@@H](C)O)[C@@H](C)CC)[C@@H](C)CC)C(C)C)C(C)C [compound 191] (Ac-IVLSLD[dV]PIGLK([γGlu-C18 diacid])KILLEQEKQKKQREQAETN[Aib]QILAQV-NH2)
